Results as given in US20040235900A1, “Antimicrobial oxazolifinones with improved pharmacokinetic profile and safety advantages” (priority 2002, published 2004).
Values after ≈ are worked out from the molar mass of the structure shown.

Tests used:
[1] = tested on: Streptococcus pneumoniae ATCC 49619; experiment: In-vitro MIC test (agar dilution, 5% sheep blood), S. pneumoniae; format: cell-based; settings: ATCC49619, Mueller Hinton agar containing 5% sheep blood, read-out: Minimum Inhibitory Concentrations (MIC) S. pneumoniae
Source text: (§1) The test methods used for verifying the antimicrobial action of compound within the scope of this invention are essentially the same as those described in PCT WO 95/25106, U.S. Pat. No. 5,668,286 and EP 0 750, 618 B1, with the difference that the strains of the organisms used for the MIC determinations in these patents and applications are Staphylococcus aureus ATCC 25923, Staphylococcus epidermidis ATCC 12828, Streptococcus pyogenes ATCC 19615.
(§2) The in-vitro MIC methods of test compounds were determined essentially as described in PCT WO 95/25106, U.S. Pat. No. 5,668,286 and EP 0 750 618 B1.
(§3) Overnight grown cultures of S. aureus organisms in Tryptic Soya broth were diluted in Mueller Hinton Broth to give optical density matching with MacFarland tube 0.5 standard. Cultures were further diluted 1:10 in Mueller Hinton broth. Using Denley's mutipoint inoculator, 10^4 cells were deposited on Mueller Hinton agar (Difco) containing range of 2 fold dilutions of test compounds. These plates were incubated for 24 hrs at 35° C. and MIC results recorded. MIC is defined as minimum drug concentration that inhibits test organisms. For determining MIC of test compounds against Streptococcus pneumoniae, Mueller Hinton agar containing 5% sheep blood was employed.

reticulocytes = experiment: Myelosuppressive potential: reticulocyte counts, 14-day oral dosing; format: in vivo, Wistar rats
Description: A group of 6 Wistar rats (3 male and 3 female) was exposed to a representative compound of the invention viz. compound No. 4 of the invention, by oral route at a single dose of 50 mg/kg per day for 14 consecutive days. Compound No.30 of U.S. Pat. No. 5,668,286 was also subjected to the same protocol. Linezolid (LNZ) was used as a comparator drug and was administered to rats (by oral route at a dose of 2×25 mg/kg per day for 14 consecutive days. Vehicle treated controls were maintained using identical experimental conditions. The treated as well as control rats were sacrificed 24 hr after the last dose.
A second parameter measured was the change in reticulocyte count, for which the following method was used.
Blood was collected on day 15 (24 hours after the last dose administration) from all the treated as well as control rats by retro-orbital sinus puncture using clean glass rat capillary tubes. […]
3 slides/animal were prepared according to NCCLS staining procedure for reticulocyte staining and counting. […] The percentage presence of reticulocyte was determined in 1000 erythrocytes and was expressed in terms of percentage of reticulocytes over erythrocytes. […]
Values in each of the first two columns above represent ratio of relative weight (calculated organ to body weight ratio) of spleen or thymus in drug treated animals v/s control animals. […]

[2] = tested on: Methicillin Resistant Staphylococcus aureus MRSA-32; experiment: In-vitro MIC test (agar dilution), MRSA-32; format: cell-based; settings: Staphylococcus aureus, MRSA; Mueller Hinton agar, 24 hrs at 35° C.; read-out: Minimum Inhibitory Concentrations (MIC) MRSA-32
Source text: as §1, §2, §3

[3] = Pharmacokinetic study, single I.V. bolus dose in beagle dog; format: in vivo; settings: iv, single I.V. bolus dose 15 mg/kg (table title), Compound No. 4 and linezolid in 5% Tween, other compounds in cyclodextrin, serum; for concentration at 12 hr: read-out: C-12 hr; for AUC(0-t): read-out: AUC (0-24 hr)
Description: Blood samples were collected at time points of 0, 0.08 (not for oral), 0.25, 0.50, 1.0, 1.5, 2.0, 3.0, 4.0, 5.0, 6.0, 8.0, 10.0, 12.0 and 24.0 hours. To facilitate i.v. dosing and collection of blood samples, the dogs were implanted with cannula in cephalic vein. Serum obtained from blood samples was used for HPLC-based analysis.
Serum samples were extracted by solid phase extraction technique using Water's OASIS HLB cartridges. An HPLC-Diode array detection system was used for analysis. Prepared samples were chromatographed on a YMC-AM reversed phase column (150×4.6 mm ID; 5 μm) using an isocratic mobile phase acetate buffer (50 mmol ammonium acetate pH 6.6) acetonitrile, 66:34% v/v (for a representative compound of the invention, 68:32% v/v for compound Nos. 30, 3, 7 and 11 of U.S. Pat. No. 5,668,286, and 75:25% v/v for linezolid) at a flow rate of 1 ml/min, measured at λmax 254 nm. Independently prepared analytical standards and quality control samples were analyzed with each set of unknown samples.
The pharmacokinetics of a representative compound of the invention following single I.V. bolus dose administration of the compound in beagle dog is shown in Table 3.

[4] = tested on: Enterococcus faecalis ATCC 29212; experiment: In-vitro MIC test (agar dilution), E. faecalis; format: cell-based; settings: ATCC29212, Mueller Hinton agar, 24 hrs at 35° C., read-out: Minimum Inhibitory Concentrations (MIC) E. faecalis
Source text: as §1, §2, §3

| MIC [1] | Ratio of % reticulocytes Retics (treated animal versus control animal) (reticulocytes; Wistar rats, oral, 14 consecutive days, 50 mg/kg per day (LNZ 2×25 mg/kg per day), blood on day 15, ratio less than 0.75 indicates myelosuppressive potential) | MIC [2] | Cmax [3] | concentration at 12 hr [3] | half-life [3] | AUC(0-t) [3] | MIC [4] | change in ratio of percentage reticulocytes of treated animal versus control animal (in words) (reticulocytes; rat, in vivo, po) | SMILES |
| --- | --- | --- | --- | --- | --- | --- | --- | --- | --- |
| 0.5 µg/mL (≈ 1.48 µM) | 0.43 | 2 µg/mL (≈ 5.93 µM) | 7160 ng/mL | 0 ng/mL | 2.41 h | 23300 ng·h/mL | 2 µg/mL (≈ 5.93 µM) |  | CC(=O)NC[C@H]1CN(c2ccc(N3CCOCC3)c(F)c2)C(=O)O1 [Linezolid] |
| 1 µg/mL (≈ 2.67 µM) |  | 2 µg/mL (≈ 5.34 µM) | 8280 ng/mL | 2640 ng/mL | 12.9 h | 80900 ng·h/mL | 2 µg/mL (≈ 5.34 µM) | no significant change | CC(=O)NC[C@H]1CN(c2ccc(N3CCC(CC#N)CC3)c(F)c2)C(=O)O1 [Compound 4, (S)-N-{3-[4-(4-cyanomethyl-piperidin-1-yl)-3-fluoro-phenyl]-2-oxo-oxazolidin-5-ylmethyl}-acetamide] |
